# Measured values reported in patent publication US7176228B2, “Pyrazole biphenylcarboxamides” (Bayer Cropscience AG, priority 2000, dated 2007).
# Legend:
# Podosphaera leucotricha = assay: Podosphaera test (apple) / protective; type: in vivo; conditions: 240 h, apple plants, protective spray, application rate 100 g/ha, evaluation 10 days after inoculation, read-out: % Efficacy
# Description: Podosphaera Test (apple)/Protective Solvent: 24.5 parts by weight of acetone • 24.5 parts by weight of dimethylacetamide Emulsifier; 1.0 part by weight of alkyl-aryl polyglycol ether To produce a suitable preparation of active compound, 1 part by weight of active compound is mixed with the stated amounts of solvent and emulsifier, and the concentrate is diluted with water to the desired concentration. To test for protectiv activity, young plants are sprayed with the preparation of active compound at the stated application rate. After the spray coating has dried on, the plants are inoculated with an aqueous spore suspension of the apple mildew pathogen Podosphaera leucotricha. The plants are then placed in a greenhouse at approximately 23° C. and a relative atmospheric humidity of approximately 70%. Evaluation is carried out 10 days after the inoculation. 0% means an efficacy which corresponds to that of the control, whereas an efficacy of 100% means that no infection is observed.
# Venturia inaequalis = assay: Venturia test (apple) / protective; type: in vivo; conditions: 288 h, apple plants, protective spray, application rate 100 g/ha, evaluation 12 days after inoculation, read-out: % Efficacy
# Description: Venturia Test (apple)/Protective [table] To produce a suitable preparation of active compound, 1 part by weight of active compound is mixed with the stated amounts of solvent and emulsifier, and the concentrate is diluted with water to the desired concentration. To test for protectivity activity, young plants are sprayed with the preparation of active compound at the stated application rate. After the spray coating has dried on, the plants are inoculated with an aqueous conidia suspension of the apple scab pathogen Venturia inaequalis and then remain in an incubation cabin at approximately 20° C. and 100% relative atmospheric humidity for 1 day. The plants are then placed in a greenhouse at approximately 21° C. and a relative atmospheric humidity of approximately 90%. Evaluation is carried out 12 days after the inoculation. 0% means an efficacy which corresponds to that of the control, whereas an efficacy of 100% means that no infection is observed.
# Alternaria solani = assay: Alternaria test (tomato) / protective; type: in vivo; conditions: tomato plants, protective spray, application rate 750 g/ha, evaluation 7 days after inoculation
# Description: Alternaria Test (tomato)/Protective [table] To produce a suitable preparation of active compound, 1 part by weight of active compound is mixed with the stated amounts of solvent and emulsifier, and the concentrate is diluted with water to the desired concentration. To test for protective activity, young tomato plants are sprayed with the preparation of active compound at the stated application rate. 1 day after the treatment, the plants are inoculated with a spore suspension of Alternaria solani and then remain at 100% rel. humidity and 20° C. for 24 h. The plants then remain at 96% rel. atmospheric humidity and a temperature of 20° C. Evaluation is carried out 7 days after the inoculation. 0% means an efficacy which corresponds to that of the control, whereas an efficacy of 100% means that no infection is observed.
# [1] = test system: Gloeophyllum trabeum, Coniophora puteana, Poria placenta, Lentinus tigrinus and Coriolus versicolor; assay: Inhibition test on giant colonies of Basidiomycetes; type: cell-based; conditions: inhibition of hyphal growth on malt extract peptone agar at 26° C., 6 ppm active compound; read-out: % efficacy
# Description: Inhibition Test on Giant Colonies of Basidiomycetes Mycelium sections were removed from colonies of Gloeophyllum trabeum, Coniophora puteana, Poria placenta, Lentinus tigrinus and Coriolus versicolor and incubated on an agar medium containing malt extract peptone at 26° C. The inhibition of hyphal growth on active-compound-containing media was compared with the longitudinal growth on media without an addition of active compound and rated as per cent inhibition.
# Sphaerotheca fuliginea = assay: Sphaerotheca test (cucumber) / protective; type: in vivo; conditions: Podosphaera fuliginea, 240 h; cucumber plants, protective spray, application rate 100 g/ha, evaluation 10 days after inoculation; read-out: % Efficacy
# Description: Sphacrotheca Test (cucumber)/Protective [table] To produce a suitable preparation of active compound, 1 part by weight of active compound is mixed with the stated amounts of solvent and emulsifier, and the concentrate is diluted with water to the desired concentration. To test for protectivity activity, young plants are sprayed with the preparation of active compound at the stated application rate. After the spray coating has dried on, the plants are inoculated with an aqueous spore suspension of Sphaerotheca fuliginea. The plants are then placed in a greenhouse at approximately 23° C. and a relative atmospheric humidity of approximately 70%. Evaluation is carried out 10 days after the inoculation. 0% means an efficacy which corresponds to that of the control, whereas an efficacy of 100% means that no infection is observed.
# Puccinia recondite = assay: Puccinia test (wheat) / protective; type: in vivo; conditions: wheat plants, protective spray, application rate 250 g/ha, evaluation 10 days after inoculation
# Description: Puccinia Test (wheat)/Protective [table] To produce a suitable preparation of active compound, 1 part by weight of active compound is mixed with the stated amounts of solvent and emulsifier, and the concentrate is diluted with water to the desired concentration. To test for protective activity, young plants arc sprayed with the preparation of active compound at the stated application rate. After the spray coating has dried on, the plants are sprayed with a conidia suspension of Puccinia recondite. The plants remain in an incubation cabin at 20° C. and 100% relative atmospheric humidity for 48 hours. The plants are then placed in a greenhouse at a temperature of approximately 20° C. and a relative atmospheric humidity of 80% to promote the development of rust pustules. Evaluation is carried out 10 days after the inoculation. 0% means an efficacy which corresponds to that of the control, whereas an efficacy of 100% means that no infection is observed.
Compound,pest or weed control at 100 g/ha (Podosphaera leucotricha) [%],pest or weed control at 100 g/ha (Venturia inaequalis) [%],% Efficacy (Alternaria solani) [%],Emax at 6 ppm [1] [%],pest or weed control at 100 g/ha (Sphaerotheca fuliginea) [%],% Efficacy (Puccinia recondite) [%]
CO/N=C/c1ccc(-c2ccccc2NC(=O)c2sc(C)nc2C(F)(F)F)cc1 [Example I-1],100,100,100,100,100,100
CO/N=C/c1cccc(-c2ccccc2NC(=O)c2sc(C)nc2C(F)(F)F)c1 [Example I-2],–,–,100,–,–,–
CCCCO/N=C\c1ccc(-c2ccccc2NC(=O)c2sc(C)nc2C(F)(F)F)cc1 [Example I-3],100,100,–,–,100,100
CCO/N=C\c1ccc(-c2ccccc2NC(=O)c2sc(C)nc2C(F)(F)F)cc1 [Example I-4],95,100,–,–,93,–
Cc1nc(C(F)(F)F)c(C(=O)Nc2ccccc2-c2ccc(/C=N\OC(C)C)cc2)s1 [Example I-5],100,100,–,–,100,–
CO/N=C(\C)c1ccc(-c2ccccc2NC(=O)c2sc(C)nc2C(F)(F)F)cc1 [Example I-6],–,–,90,–,–,–
CO/N=C\c1ccc(-c2ccccc2NC(=O)c2cn(C)nc2C(F)(F)F)cc1 [Example I-10],88,88,–,100,88,100
CO/N=C/c1ccc(-c2ccccc2NC(=O)c2cn(C)nc2C(F)F)cc1 [Example I-11],93,100,95,100,95,–
CO/N=C\c1ccc(-c2ccccc2NC(=O)c2cn(C)nc2C)cc1 [Example I-12],–,–,–,100,–,–
CO/N=C\c1ccc(-c2ccccc2NC(=O)c2cccnc2Cl)cc1 [Example I-20],100,100,–,–,100,100
CCCCO/N=C/c1ccc(-c2ccccc2NC(=O)c2cn(C)nc2C(F)(F)F)cc1 [Example I-22],100,100,–,–,100,–
CCCO/N=C/c1ccc(-c2ccccc2NC(=O)c2sc(C)nc2C(F)(F)F)cc1 [Example I-23],100,100,–,–,100,–
CCO/N=C(/C)c1ccc(-c2ccccc2NC(=O)c2cn(C)nc2C(F)(F)F)cc1 [Example I-24],75,100,–,–,92,–
CC(C)O/N=C/c1ccc(-c2ccccc2NC(=O)c2cn(C)nc2C(F)(F)F)cc1 [Example I-26],100,100,–,–,100,–
CCCO/N=C/c1ccc(-c2ccccc2NC(=O)c2cn(C)nc2C(F)(F)F)cc1 [Example I-28],99,100,–,–,100,–
Cn1cc(C(=O)Nc2ccccc2-c2ccc(/C=N\O)cc2)c(C(F)(F)F)n1 [Example I-41],98,100,–,–,72,–
CO/N=C/c1ccc(-c2ccccc2NC(=O)c2sccc2C)cc1 [Example I-47],100,100,–,–,100,–
CO/N=C/c1ccc(-c2ccccc2NC(=O)c2cn(C)nc2C(F)(F)F)cc1Cl [Example I-49],100,100,–,–,100,100
CO/N=C\c1cc(-c2ccccc2NC(=O)c2cn(C)nc2C(F)(F)F)ccc1/C=N/OC [Example I-50],93,100,–,–,97,–
CO/N=C/c1ccc(-c2c(C)cccc2NC(=O)c2sc(C)nc2C(F)(F)F)cc1 [Example I-51],100,100,–,–,100,100
CO/N=C/c1cccc(-c2ccccc2NC(=O)c2cn(C)nc2C(F)(F)F)c1 [Example I-52],77,100,–,–,97,–
